Data as given in BindingDB's records for doi:10.7270/Q2NZ862K (Nmmlsc, 2007).
pKi: −log10 of the molar value.

Target: T1, fMet-Leu-Phe receptor (Homo sapiens, UniProt P21462)
T1 sequence (P21462 whole entry): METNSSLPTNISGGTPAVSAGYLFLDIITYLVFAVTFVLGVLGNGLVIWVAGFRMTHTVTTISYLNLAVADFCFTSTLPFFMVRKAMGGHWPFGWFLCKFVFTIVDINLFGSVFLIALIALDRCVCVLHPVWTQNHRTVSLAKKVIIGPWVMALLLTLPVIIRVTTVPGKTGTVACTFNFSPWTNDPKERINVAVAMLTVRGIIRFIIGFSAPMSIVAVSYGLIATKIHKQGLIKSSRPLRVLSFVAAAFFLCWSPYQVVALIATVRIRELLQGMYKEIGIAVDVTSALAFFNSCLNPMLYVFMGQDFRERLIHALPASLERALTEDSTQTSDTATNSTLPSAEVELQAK
Assay: formyl peptide receptor binders – dose response (AID 519)

Cc1ccc(C(=O)C2C(=O)C(=O)N(CC(C)O)C2c2ccc(N(C)C)cc2)cc1 (stereo not drawn) [(4E)-5-[4-(dimethylamino)phenyl]-1-(2-hydroxypropyl)-4-[hydroxy(p-tolyl)methylene]pyrrolidine-2,3-quinone]
pKi: < 4.36

COCCN1C(=O)C(=O)C(C(=O)c2ccco2)C1c1cccc(Oc2ccccc2)c1 (stereo not drawn) [3-(furan-2-carbonyl)-4-hydroxy-1-(2-methoxyethyl)-2-(3-phenoxyphenyl)-2H-pyrrol-5-one]
pKi: 4.44

COc1ccc(C(=O)C2C(=O)C(=O)N(CCN3CCOCC3)C2c2ccc(C)cc2)cc1 (stereo not drawn) [(4Z)-4-[(4-methoxyphenyl)-oxidanyl-methylidene]-5-(4-methylphenyl)-1-(2-morpholin-4-ylethyl)pyrrolidine-2,3-dione]
pKi: < 4.36

COc1ccccc1C1C(C(=O)c2ccccc2)C(=O)C(=O)N1CC(C)O (stereo not drawn) [(4Z)-4-[hydroxy(phenyl)methylene]-1-(2-hydroxypropyl)-5-(2-methoxyphenyl)pyrrolidine-2,3-quinone]
pKi: 4.79

O=C1C(=O)N(Cc2ccccc2)C(c2cccnc2)C1C(=O)c1ccco1 (stereo not drawn) [1-Benzyl-4-(furan-2-carbonyl)-3-hydroxy-5-pyridin-3-yl-1,5-dihydro-pyrrol-2-one]
pKi: 4.70

C=CCOc1ccc(C2C(C(=O)c3cccs3)C(=O)C(=O)N2c2nnc(C)s2)cc1 (stereo not drawn) [1-(5-methyl-1,3,4-thiadiazol-2-yl)-4-oxidanyl-2-(4-prop-2-enoxyphenyl)-3-thiophen-2-ylcarbonyl-2H-pyrrol-5-one]
pKi: 4.58

COc1ccccc1C1C(C(=O)c2ccccc2)C(=O)C(=O)N1CCO (stereo not drawn) [(4Z)-1-(2-hydroxyethyl)-4-[hydroxy(phenyl)methylene]-5-(2-methoxyphenyl)pyrrolidine-2,3-quinone]
pKi: 4.89

CC1Cc2cc(C(=O)C3C(=O)C(=O)N(CCN4CCOCC4)C3c3ccccc3F)ccc2O1 (stereo not drawn) [(4E)-5-(2-fluorophenyl)-4-[(2-methyl-2,3-dihydro-1-benzofuran-5-yl)-oxidanyl-methylidene]-1-(2-morpholin-4-ylethyl)pyrrolidine-2,3-dione]
pKi: < 4.36

COc1ccc(CCN2C(=O)C(=O)C(C(=O)c3ccco3)C2c2cccs2)cc1OC (stereo not drawn) [1-[2-(3,4-Dimethoxy-phenyl)-ethyl]-4-(furan-2-carbonyl)-3-hydroxy-5-thiophen-2-yl-1,5-dihydro-pyrrol-2-one]
pKi: 4.91

COC(=O)c1ccc(C2C(C(=O)c3ccc(OC)cc3)C(=O)C(=O)N2Cc2ccco2)cc1 (stereo not drawn) [4-[(3Z)-1-(2-furanylmethyl)-3-[hydroxy-(4-methoxyphenyl)methylidene]-4,5-dioxo-2-pyrrolidinyl]benzoic acid methyl ester]
pKi: 4.55

O=c1c(C23CC4CC(CC(C4)C2)C3)c(O)n(-c2ccccc2)n1-c1ccccc1 [MLS000526352]
pKi: 5.12

CCOc1ccc(C(=O)C2C(=O)C(=O)N(CC3CCCO3)C2c2ccco2)cc1 (stereo not drawn) [(4Z)-4-[(4-ethoxyphenyl)-hydroxymethylidene]-5-(2-furanyl)-1-(2-oxolanylmethyl)pyrrolidine-2,3-dione]
pKi: 4.68

O=C1C(=O)N(CC2CCCO2)C(c2cccnc2)C1C(=O)c1ccco1 (stereo not drawn) [3-(furan-2-carbonyl)-4-hydroxy-1-(oxolan-2-ylmethyl)-2-pyridin-3-yl-2H-pyrrol-5-one]
pKi: 4.44

COc1cc(-n2nc(C)c3c2OC(=N)C(C#N)C3c2ccccc2)c(Cl)c(Br)c1O (stereo not drawn) [6-amino-1-(3-bromo-2-chloro-4-hydroxy-5-methoxyphenyl)-3-methyl-4-phenyl-1,4-dihydropyrano[2,3-c]pyrazole-5-carbonitrile]
pKi: 4.67

CCOc1cc(C2C(C(=O)c3ccco3)C(=O)C(=O)N2CCc2ccccc2)ccc1O (stereo not drawn) [2-(3-ethoxy-4-hydroxyphenyl)-3-(furan-2-carbonyl)-4-hydroxy-1-(2-phenylethyl)-2H-pyrrol-5-one]
pKi: < 4.36

CCCOc1ccc(C2C(C(=O)c3ccc(C)o3)C(=O)C(=O)N2CCCn2ccnc2)cc1 (stereo not drawn) [1-(3-imidazol-1-ylpropyl)-3-(5-methylfuran-2-yl)carbonyl-4-oxidanyl-2-(4-propoxyphenyl)-2H-pyrrol-5-one]
pKi: 5.05

Cc1ccc(C)c(C(=O)C2C(=O)C(=O)N(CCCn3ccnc3)C2c2ccncc2)c1 (stereo not drawn) [(4E)-4-[(2,5-dimethylphenyl)-hydroxy-methylene]-1-(3-imidazol-1-ylpropyl)-5-(4-pyridyl)pyrrolidine-2,3-quinone]
pKi: < 4.36

COC(=O)c1[nH]c(C)c(C(=O)C2C(=O)C(=O)N(CCCN3CCOCC3)C2c2ccccn2)c1C (stereo not drawn) [methyl 4-{[4-hydroxy-1-[3-(4-morpholinyl)propyl]-5-oxo-2-(2-pyridinyl)-2,5-dihydro-1H-pyrrol-3-yl]carbonyl}-3,5-dimethyl-1H-pyrrole-2-carboxylate]
pKi: 5.20

COc1ccc(C2C(C(=O)c3ccco3)C(=O)C(=O)N2CCc2ccccc2)cc1OC (stereo not drawn) [2-(3,4-dimethoxyphenyl)-3-(furan-2-carbonyl)-4-hydroxy-1-(2-phenylethyl)-2H-pyrrol-5-one]
pKi: 4.62

COCCCN1C(=O)C(=O)C(C(=O)c2ccc3c(c2)CC(C)O3)C1c1cccnc1 (stereo not drawn) [(4E)-1-(3-methoxypropyl)-4-[(2-methyl-2,3-dihydro-1-benzofuran-5-yl)-oxidanyl-methylidene]-5-pyridin-3-yl-pyrrolidine-2,3-dione]
pKi: < 4.36

O=C1CCCC(=O)C1C(C#Cc1ccccc1)C1C(=O)CCCC1=O [3-hydroxy-2-[1-(2-hydroxy-6-keto-cyclohexen-1-yl)-3-phenyl-prop-2-ynyl]cyclohex-2-en-1-one]
pKi: < 4.36

COc1cc(C2C(C(=O)c3ccc(C)o3)C(=O)C(=O)N2Cc2cccnc2)ccc1O (stereo not drawn) [2-(3-methoxy-4-oxidanyl-phenyl)-3-(5-methylfuran-2-yl)carbonyl-4-oxidanyl-1-(pyridin-3-ylmethyl)-2H-pyrrol-5-one]
pKi: < 4.36

Cc1cc(N2C(=O)C(=O)C(C(=O)c3ccc(F)cc3)C2c2cccc(Br)c2)no1 (stereo not drawn) [(4E)-5-(3-bromophenyl)-4-[(4-fluorophenyl)-hydroxy-methylene]-1-(5-methylisoxazol-3-yl)pyrrolidine-2,3-quinone]
pKi: < 4.36

COc1ccc(OC)c(C2C(C(=O)c3cc4ccccc4o3)C(=O)C(=O)N2c2cc(C)on2)c1 (stereo not drawn) [3-(1-benzofuran-2-carbonyl)-2-(2,5-dimethoxyphenyl)-4-hydroxy-1-(5-methyl-1,2-oxazol-3-yl)-2H-pyrrol-5-one]
pKi: 4.62

CCCCc1c(O)n(-c2ccccc2)n(-c2ccccc2)c1=O [3,5-Dioxo-1,2-diphenyl-4-n-butylpyrazolidine]
pKi: 5.46

COCCCN1C(=O)C(=O)C(C(=O)c2ccco2)C1c1ccc(Br)cc1 (stereo not drawn) [2-(4-bromophenyl)-3-(furan-2-carbonyl)-4-hydroxy-1-(3-methoxypropyl)-2H-pyrrol-5-one]
pKi: 5.02

COc1ccccc1C1C(C(=O)c2ccccc2)C(=O)C(=O)N1CC(C)C (stereo not drawn) [(4Z)-4-[hydroxy(phenyl)methylene]-1-isobutyl-5-(2-methoxyphenyl)pyrrolidine-2,3-quinone]
pKi: 5.44

O=C1C(=O)N(CCN2CCOCC2)C(c2ccccc2)C1C(=O)c1cccs1 (stereo not drawn) [1-(2-morpholin-4-ylethyl)-4-oxidanyl-2-phenyl-3-thiophen-2-ylcarbonyl-2H-pyrrol-5-one]
pKi: < 4.36
